Data taken from publication PMC6801448, “The Antioxidant and Antiproliferative Activities of 1,2,3-Triazolyl-L-Ascorbic Acid Derivatives” (International Journal of Molecular Sciences, 2019).
Where two headings read alike, the source gives them in different places.

Legend:
WI-38 (lung fibroblasts) = test: MTT proliferation assay, WI-38; format: cell-based; details: Homo sapiens, 72 h, normal lung fibroblasts
Protocol: (§1) Human tumor cell lines HeLa (cervical carcinoma), SW620 (colorectal adenocarcinoma, metastatic), A549 (lung adenocarcinoma), MCF−7 (breast adenocarcinoma), CFPAC-1 (pancreatic adenocarcinoma, metastatic), HCT-116 (colorectal carcinoma), and HepG2 (hepatocellular carcinoma), and normal cell lines HFF-1 (foreskin fibroblasts) and WI-38 (immortalized human lung fibroblast), were from the US American Type Culture Collection (ATCC, Manassas, VA, USA). Cells were cultured in a liquid nutrient medium (Dulbecco’s Modified Eagle Medium, LONZA, Basel, Switzerland) supplemented with 10% fetal bovine serum (FBS, Gibco, Grand Island, NY, USA), 2 mM L-glutamine (GIBCO, Grand Island, NY, USA), 100 μg/mL penicillin, and 100 μg/mL streptomycin (LONZA, Basel, Switzerland), in an incubator (NÜVE, Ankara, Turkey), at a humid atmosphere with 5% CO2 at 37 °C. Trypsin/EDTA Solution (Lonza, Basel, Switzerland), was used for cell passaging and cell detachment.
(§2) Adherent cells were seeded on 96 well microtiter plates (Falcon, New York, NY, USA) at a seeding density of 5000 cells per well, added in 150 μL of cell suspension in a nutrient medium. 24 h after seeding, cells were treated with compound 4b–4g, 4i, 4k–4t, 4v, 7c–7g, and 7i–7q dilutions in the range of 0.01 μM to 100 μM. L-ascoric acid (Sigma Aldrich, Darmstadt, Germany) and Carboxyamidotriazole (Sigma Aldrich, Darmstadt, Germany) were used as control compounds. Incubation of the cells with the compounds were performed for 72 h in a 5% CO2, in humid atmosphere at 37 °C. After incubation, nutrient medium was removed and 40 μL of the MTT reagent ([…]-2,5-diphenyltetrazole bromide (Invitrogen, Carlsbad, CA, USA) was added to each well. 3 h after incubation, 160 μL of DMSO (VWR CHEMICALS, Radnor, PA, USA) were added to each well to dissolve the crystals of purple formazane. The absorbance was measured at 570 nm (TECAN SUNRISE Microtiter plate reader (Männedorf, Switzerland). The experimentally measured optical densities (OD) were converted to the PG (percentage of growth), using the formulas according to the protocol assumed by NIH (National Institute of Health). The IC50 values (concentration causing 50% cell growth inhibition) for each compound were calculated by regression analysis of the survival count curve of the concentrations of the tested compounds. The results were processed in Excel 2010 (Microsoft, Redmond, WA, USA).

[1] = DPPH radical scavenging assay; format: biochemical
Protocol: Likewise, L-ASA, the 1,2,3-triazole L-ASA derivatives with free C2-OH and C3-OH groups were expected to be potent antioxidants. Therefore, they were tested as radical scavengers by reaction with the stable free radical 2,2-diphenyl-1-picrylhydrazyl (DPPH^•).
Antioxidant capacity of selected compounds was assessed by 2,2-diphenyl-1-picrylhydrazyl assay (DPPH, Sigma Aldrich, Darmstadt, Germany), in which the antioxidant activity of compounds is measured by the reaction between a stable radical of 1,1-diphenyl-2-picylhydrazil (DPPH^•) and a selected compound according to the manufacturer recommendations. Briefly, compounds 4b–4e, 4f–4h, 4k, 4l, 4o, 4p–4s, 4t, 4v, 7c–7f, 7i–7n, 7q, 7p, and 7o were tested at 0.06, 0.12, 0.18, 0.23, 0.25, and 0.28 mM. L-ascorbic acid was used as the reference compound. Absorbance was measured 5 and 10 min after incubation of the compounds with the DPPH reagent. The reduction of DPPH with selected compounds was monitored by measuring the absorbance at a wavelength of 517 nm on the monochromator (Infinite M200 PRO, TECAN, Männedorf, Switzerland).

[2] = test system: MCF-7 (breast adenocarcinoma); test: MTT proliferation assay, MCF-7; format: cell-based, Human; details: Homo sapiens, MCF7; 72 h, MTT
Protocol: as §1, §2

[3] = test system: HeLa (cervical carcinoma); test: MTT proliferation assay, HeLa; format: cell-based; details: Homo sapiens, 72 h
Protocol: as §1, §2

[4] = test system: HCT-116 (colorectal carcinoma); test: MTT proliferation assay, HCT-116; format: cell-based; details: Homo sapiens, 72 h
Protocol: as §1, §2

[5] = test system: SW620 (colorectal adenocarcinoma, metastatic); test: MTT proliferation assay, SW620; format: cell-based; details: Homo sapiens, SW-620, 72 h
Protocol: as §1, §2

[6] = test system: CFPAC-1 (ductal pancreatic adenocarcinoma); test: MTT proliferation assay, CFPAC-1; format: cell-based; details: Homo sapiens, 72 h
Protocol: as §1, §2

[7] = test system: HepG2 (hepatocellular carcinoma); test: MTT proliferation assay, HepG2; format: cell-based; details: Homo sapiens, 72 h
Protocol: as §1, §2

[8] = test system: A549 (lung adenocarcinoma); test: MTT proliferation assay, A549; format: cell-based; details: Homo sapiens, 72 h
Protocol: as §1, §2

[9] = 5 min treatment, read-out: IC50 of DPPH• inhibition, Treatm. 5 min
[10] = 10 min treatment, read-out: IC50 of DPPH• inhibition, Treatm. 10 min

SMILES | IC50 [1, 9] [µM] | IC50 [1, 10] [µM] | IC50 [2] [µM] | melting point [°C] | IC50 [3] [µM] | IC50 [4] [µM] | IC50 [5] [µM] | IC50 [6] [µM] | IC50 [7] [µM] | IC50 [8] [µM] | IC50 (WI-38 (lung fibroblasts)) [µM]
CCCCc1cn(C/C=C2\OC(=O)C(O)=C2O)nn1 [Compound 7m, 6-[4-butyl-1,2,3-triazole-1-yl]-4,5-didehydro-5,6-dideoxy-L-ascorbic acid] | 200 | 190 | > 100 | 180 to 183 | > 100 | > 100 | > 100 | > 100 | > 100 | > 100 | > 100
O=C1O/C(=C\Cn2cc(C3CC3)nn2)C(O)=C1O [Compound 7l, 6-[4-cyclopropyl-1,2,3-triazole-1-yl]-4,5-didehydro-5,6-dideoxy-L-ascorbic acid] | 200 ± 10 | 200 | > 100 | 176 to 178 | > 100 | > 100 | > 100 | > 100 | > 100 | > 100 | > 100
O=C1O[C@H]([C@@H](O)Cn2cc(CSC(=S)N3CCNCC3)nn2)C(O)=C1O [Compound 4v] | 270 ± 10 | 270 | 37.3 | ≥ 250 | > 100 | > 100 | > 100 | > 100 | > 100 | 98 | > 100
O=C1O/C(=C\Cn2cc(CCCCl)nn2)C(O)=C1O [Compound 7p, 6-[4-chloropropyl-1,2,3-triazole-1-yl]-4,5-didehydro-5,6-dideoxy-L-ascorbic acid] | 200 | 200 | > 100 | 160 to 162 | > 100 | > 100 | > 100 | > 100 | > 100 | > 100 | > 100
CC(C)(C)c1cn(C/C=C2\OC(=O)C(O)=C2O)nn1 [Compound 7o, 6-[4-tert-butyl-1,2,3-triazole-1-yl]-4,5-didehydro-5,6-dideoxy-L-ascorbic acid] | 200 | 200 | > 100 | 182 to 184 | > 100 | > 100 | > 100 | > 100 | > 100 | > 100 | > 100
O=C1O/C(=C\Cn2cc(CCO)nn2)C(O)=C1O [Compound 7q, 6-[4-(2-hydroxyethyl)-1,2,3-triazole-1-yl]-4,5-didehydro-5,6-dideoxy-L-ascorbic cid] | 70 | 70 | > 100 | 172 to 173 | > 100 | > 100 | > 100 | > 100 | > 100 | > 100 | > 100
O=c1[nH]cc(F)c(=O)[nH]1 [Compound 5-FU, 5-fluorouracil, reference compound] |  |  | 0.096 |  | 8.81 |  | 0.08 | 0.14 | 9.04 | 2.8 | 0.94
O=C1O/C(=C\Cn2cc(-c3cc(C(F)(F)F)cc(C(F)(F)F)c3)nn2)C(O)=C1O [Compound 7c, 4,5-didehydro-5,6-dideoxy-(4-(3,5-di-(trifluoromethyl)phenyl)-1,2,3-triazol-1-yl)-L-ascorbic acid] |  |  | > 100 | ≥ 200 | > 100 | > 100 | > 100 | > 100 | > 100 | > 100 | > 100

Now from value to compound, other results behind:

IC50 [1, 9] [µM] | IC50 [1, 10] [µM] | IC50 [2] [µM] | melting point [°C] | IC50 [3] [µM] | IC50 [4] [µM] | IC50 [5] [µM] | IC50 [6] [µM] | IC50 [7] [µM] | IC50 [8] [µM] | SMILES | IC50 (WI-38 (lung fibroblasts)) [µM]
230 | 230 | > 100 | ≥ 200 | > 100 | > 100 | > 100 | > 100 | > 100 | > 100 | O=C1O/C(=C\Cn2cc(-c3cc(F)cc(F)c3)nn2)C(O)=C1O [Compound 7d] | > 100
100 ± 20 | 100 ± 20 | > 100 | 188 to 192 | > 100 | > 100 | > 100 | > 100 | > 100 | > 100 | Cc1ccc(-c2cn(C/C=C3\OC(=O)C(O)=C3O)nn2)cc1 [Compound 7f, 6-[4-tolyl-1,2,3-triazole-1-yl]-4,5-didehydro-5,6-dideoxy-L-ascorbic acid] | > 100
 |  | > 100 | 219 to 222 | > 100 | > 100 | > 100 | > 100 | > 100 | > 100 | O=C1O/C(=C\Cn2cc(-c3ccc(Br)cc3)nn2)C(O)=C1O [Compound 7e, 6-[4-(4-bromophenyl)-1,2,3-triazole-1-yl]-4,5-didehydro-5,6-dideoxy-L-ascorbic acid] | > 100
100 ± 50 | 100 ± 40 | > 100 | 167 to 169 | > 100 | > 100 | > 100 | > 100 | > 100 | > 100 | O=C1O/C(=C\Cn2cc(-c3ccccc3O)nn2)C(O)=C1O [Compound 7i, 4,5-didehydro-5,6-dideoxy-6-[4-(2-hydroxyphenyl)-1,2,3-triazole-1-yl]-L-ascorbic acid] | > 100
> 280 | 260 | > 100 | 198 to 199 | > 100 | > 100 | > 100 | > 100 | > 100 | > 100 | COc1ccc(-c2cn(C/C=C3\OC(=O)C(O)=C3O)nn2)cc1 [Compound 7g, 4,5-didehydro-5,6-dideoxy-6-[4-(4-methoxyphenyl)-1,2,3-triazole-1-yl]-L-ascorbic acid] | > 100
 |  | > 100 | 230 to 232 | > 100 | > 100 | > 100 | > 100 | > 100 | > 100 | CCCCCc1ccc(-c2cn(C/C=C3\OC(=O)C(O)=C3O)nn2)cc1 [Compound 7k, 4,5-didehydro-5,6-dideoxy-6-[4-(4-pentylphenyl)-1,2,3-triazole-1-yl]-L-ascorbic acid] | > 100
 |  | > 100 | 155 to 157 | > 100 | > 100 | > 100 | > 100 | > 100 | > 100 | O=C1O/C(=C\Cn2cc(-c3cccc(O)c3)nn2)C(O)=C1O [Compound 7j, 4,5-didehydro-5,6-dideoxy-6-[4-(3-hydroxyphenyl)-1,2,3-triazole-1-yl]-L-ascorbic acid] | > 100
